Reference: patent publication US20090181986A1, “SUBSTITUTED HETEROCYCLIC COMPOUNDS” (priority 2007, published 2009)

Assays:
hERG potassium channel = hERG potassium channel (Homo sapiens, UniProt Q12809); experiment: hERG screening assay (PatchXpress patch clamp, CHO cells)
L-type calcium channel = L-type calcium channel activity well-plate assay (IMR-32 cells, Ca-4 dye, FlexStation); assay type: cell-based, human
Experimental: Cell Culture: IMR-32 (human neuroblastoma) cells were obtained from The American Type Culture Collection. The cells were maintained in MEM supplemented with 10% fetal bovine serum, 2 mM of L-glutamine, 100 IU/ml of penicillin, 50 μg/ml of streptomycin, 1% of sodium pyruvate, 1% of sodium bicarbonate and 1% of non-essential amino acid. […] Culture medium was changed every two days and cells were recultivated when they reached 70-80% confluent.
Assay: IMR-32 cells were seeded on a Microtest 96-well Assay Plate (BD FALCON™) at a density of 200,000 cells/well in 200 μl culture medium for overnight. The culture medium was removed, and replaced by 120 μl Ca-4 dye (MDS Analytical Technologies, Sunnyvale, Calif.) in HBSS (1× Hank's Balanced Salt solution plus 20 mM HEPES, pH 7.4) containing 2 mM probenecid. Cells were then incubated for 1 hour at 37° in incubator. Testing compounds were diluted from 5 μM-50 μM in HBSS, and 40 μl were added in cells before assay. […] The inhibition of L-type calcium channel activity by compounds was then calculated.

Sequence of hERG potassium channel (Q12809 whole entry): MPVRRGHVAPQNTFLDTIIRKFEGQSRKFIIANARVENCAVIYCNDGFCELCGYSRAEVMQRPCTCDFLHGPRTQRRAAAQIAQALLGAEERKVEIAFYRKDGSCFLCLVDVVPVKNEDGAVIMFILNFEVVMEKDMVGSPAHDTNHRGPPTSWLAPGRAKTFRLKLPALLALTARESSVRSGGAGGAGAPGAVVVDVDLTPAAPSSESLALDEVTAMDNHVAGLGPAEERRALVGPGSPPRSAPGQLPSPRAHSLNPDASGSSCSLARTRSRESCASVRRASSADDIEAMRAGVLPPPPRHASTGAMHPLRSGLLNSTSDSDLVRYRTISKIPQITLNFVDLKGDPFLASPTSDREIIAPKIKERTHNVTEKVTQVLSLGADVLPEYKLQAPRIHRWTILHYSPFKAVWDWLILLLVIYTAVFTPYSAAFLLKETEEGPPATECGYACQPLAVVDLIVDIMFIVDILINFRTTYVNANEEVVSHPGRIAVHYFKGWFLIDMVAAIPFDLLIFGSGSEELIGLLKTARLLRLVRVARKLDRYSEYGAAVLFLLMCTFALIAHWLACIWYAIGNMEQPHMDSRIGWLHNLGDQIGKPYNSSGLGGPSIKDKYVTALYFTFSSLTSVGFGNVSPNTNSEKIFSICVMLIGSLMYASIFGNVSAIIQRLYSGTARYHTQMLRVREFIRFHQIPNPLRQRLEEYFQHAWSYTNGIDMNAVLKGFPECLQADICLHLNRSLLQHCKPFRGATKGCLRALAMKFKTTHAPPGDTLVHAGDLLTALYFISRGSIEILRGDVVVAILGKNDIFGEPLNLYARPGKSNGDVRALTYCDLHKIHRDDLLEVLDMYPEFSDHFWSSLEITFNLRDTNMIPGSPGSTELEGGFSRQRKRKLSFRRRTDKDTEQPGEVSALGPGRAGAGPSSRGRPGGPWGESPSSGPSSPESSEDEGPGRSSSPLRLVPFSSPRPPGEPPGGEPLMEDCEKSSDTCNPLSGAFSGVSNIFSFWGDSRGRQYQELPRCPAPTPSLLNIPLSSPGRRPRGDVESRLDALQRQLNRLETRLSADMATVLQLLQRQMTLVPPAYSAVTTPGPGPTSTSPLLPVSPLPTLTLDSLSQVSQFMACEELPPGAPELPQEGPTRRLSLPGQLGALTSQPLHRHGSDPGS

SMILES | hERG Patch Clamp hERG % blk (1 μM test cmpd) (hERG potassium channel) [%] | hERG Patch Clamp hERG % blk (10 μM test cmpd) (hERG potassium channel) [%] | CaL Plate Assay % blk (1 μM test cmpd) (L-type calcium channel) [%] | CaL Plate Assay % blk (10 μM test cmpd) (L-type calcium channel) [%]
CCOC(=O)C1=C(C)NC(C)=C(C(=O)OCC)C1c1cc2ccccc2s1 [PT-114, diethyl 4-(benzo[b]thiophen-2-yl)-2,6-dimethyl-1,4-dihydropyridine-3,5-dicarboxylate] | 27.5 | 86.5 | 8 | 15
CC1=C(C(=O)OC2CCc3ccccc32)C(c2cccc3ccccc23)n2nnnc2N1 (stereo not shown) [PT-062, 2,3-dihydro-1H-inden-1-yl 5-methyl-7-(naphthalen-1-yl)-4,7-dihydrotetrazolo[1,5-a]pyrimidine-6-carboxylate] |  | 14 | 51 | 
CC1=C(C(=O)OC(C)C)C(c2cccc3ccccc23)C(C(=O)OC(C)C)=C(C)N1 [PT-123, diisopropyl 2,6-dimethyl-4-(naphthalen-1-yl)-1,4-dihydropyridine-3,5-dicarboxylate] | 10 | 30.5 | 59 | 92
CC1=C(C(=O)OCc2ccccc2)C(c2cccs2)n2nnnc2N1 (stereo not shown) [PT-040, benzyl 5-methyl-7-(thiophen-2-yl)-4,7-dihydrotetrazolo[1,5-a]pyrimidine-6-carboxylate] | 14.5 | 24.5 | 0 | 18
CC1=C(C(=O)OCc2ccccc2)C(c2csc3ccccc23)n2nnnc2N1 (stereo not shown) [PT-042, benzyl 7-(benzo[b]thiophen-3-yl)-5-methyl-4,7-dihydrotetrazolo[1,5-a]pyrimidine-6-carboxylate] | 11 | 52.5 | 0 | 16
CCOC(=O)C1=C(C)N(C)C(C)=C(C(=O)OCC)C1c1cccc2ccccc12 [PT-191, diethyl 1,2,6-trimethyl-4-(naphthalen-1-yl)-1,4-dihydropyridine-3,5-dicarboxylate] | 26.5 | 68 | 12 | 37
N#CC1=C(N)NC2=C(C(=O)CCC2)C1c1ccc(Br)cc1 (stereo not shown) [PT-095, 2-amino-4-(4-bromophenyl)-5-oxo-1,4,5,6,7,8-hexahydroquinoline-3-carbonitrile] | 10 | 24.5 | 0 | 15
CCOC(=O)C1=C(C)NC(C)=C(C(=O)OCC)C1c1cccs1 [PT-111, diethyl 2,6-dimethyl-4-(thiophen-2-yl)-1,4-dihydropyridine-3,5-dicarboxylate] | 11.5 | 48.5 | 75 | 79
CCOC(=O)C1=C(C)Nc2nnnn2C1c1cccc2ccccc12 (stereo not shown) [PT-192, ethyl 5-methyl-7-(naphthalen-1-yl)-4,7-dihydrotetrazolo[1,5-a]pyrimidine-6-carboxylate] | 23 | 29 | 9 | 12
N#CC1=C(N)OC2=C(C(=O)CCC2)C1c1ccsc1 (stereo not shown) [PT-100, 2-amino-5-oxo-4-(thiophen-3-yl)-5,6,7,8-tetrahydro-4H-chromene-3-carbonitrile] | 10 | 16.5 | 0 | 0
CC1=C(C(=O)NCc2ccccc2)C(c2ccsc2)C2=C(CCCC2=O)N1 (stereo not shown) [PT-178, N-benzyl-2-methyl-5-oxo-4-(thiophen-3-yl)-1,4,5,6,7,8-hexahydroquinoline-3-carboxamide] | 11.5 | 30 | 10 | 2
CC1=C(C(=O)OC(C)C)C(c2ccc(Br)s2)C(C(=O)OC(C)C)=C(C)N1 [PT-124, diisopropyl 4-(5-bromothiophen-2-yl)-2,6-dimethyl-1,4-dihydropyridine-3,5-dicarboxylate] | 11.5 | 66 | 10 | 52
CC1=C(C(=O)OCc2ccccc2)C(c2c3ccccc3cc3ccccc23)n2nnnc2N1 (stereo not shown) [PT-039, benzyl 7-(anthracen-9-yl)-5-methyl-4,7-dihydrotetrazolo[1,5-a]pyrimidine-6-carboxylate] | 10 | 27.5 | 2 | 0
CCCC1=C(C(=O)OCC)C(c2ccsc2)C2=C(CC(c3ccccc3)CC2=O)N1 (stereo not shown) [PT-149, ethyl 5-oxo-7-phenyl-2-propyl-4-(thiophen-3-yl)-1,4,5,6,7,8-hexahydroquinoline-3-carboxylate] | 46 | 90 | 4 | 72
CCOC(=O)C1=C(C(C)C)NC(C(C)C)=C(C(=O)OCC)C1c1ccc(Br)s1 [PT-183, diethyl 4-(5-bromothiophen-2-yl)-2,6-diisopropyl-1,4-dihydropyridine-3,5-dicarboxylate] | 10 | 10 | 0 | 16
CCOC(=O)C1=C(C)NC(C)=C(C(=O)OCC)C1c1ccc(CC)s1 [PT-113, diethyl 4-(5-ethylthiophen-2-yl)-2,6-dimethyl-1,4-dihydropyridine-3,5-dicarboxylate] | 11 | 57.5 | 18 | 93
CCOC(=O)C1=C(C)NC(C)=C(C(=O)OCC)C1c1ccc2ccccc2c1 [PT-107, diethyl 2,6-dimethyl-4-(naphthalen-2-yl)-1,4-dihydropyridine-3,5-dicarboxylate] | 11.5 | 48 | 10 | 44
CC1=C(C(=O)OCc2ccccc2)C(c2cccc3ccccc23)n2nnnc2N1 (stereo not shown) [PT-027, benzyl 5-methyl-7-(naphthalen-1-yl)-4,7-dihydrotetrazolo[1,5-a]pyrimidine-6-carboxylate] | 14 | 64.5 | 0 | 0
N#CC1=C(N)OC2=C(C(=O)CCC2)C1c1ccc(Br)cc1 (stereo not shown) [PT-096, 2-amino-4-(4-bromophenyl)-5-oxo-5,6,7,8-tetrahydro-4H-chromene-3-carbonitrile] | 15 | 48 | 8 | 39
CCOC(=O)C1=C(C)Nc2nc(C#N)c(C#N)n2C1c1cccc2ccccc12 (stereo not shown) [PT-194, ethyl 2,3-dicyano-7-methyl-5-(naphthalen-1-yl)-5,8-dihydroimidazo[1,2-a]pyrimidine-6-carboxylate] | 25 | 91 | 21 | 61
CCOC(=O)C1=C(CC)NC(CC)=C(C(=O)OCC)C1c1ccc(Br)s1 [PT-181, diethyl 4-(5-bromothiophen-2-yl)-2,6-diethyl-1,4-dihydropyridine-3,5-dicarboxylate] | 10.5 | 73 | 8 | 61
